For one data set, the target named is SNHG14. The note with it: ASO, Human Neuronal Cell.
The target in the next data set is SOD1. The note with it: ASO.

Where “and” joins values, the source holds several entries; their conditions need not be identical. Equal entries are not always repeated. After the bases stand the sugars from the 5' end (letter, count) and the backbone: PS all phosphorothioate, else s phosphorothioate and o phosphodiester by linkage. Methylation of C is not given here. e = 2'-O-(2-methoxyethyl) (MOE); l = locked nucleic acid (LNA); k = constrained ethyl (cEt); d = 2'-deoxy (DNA)

In the data set with SNHG14 (7.5 µM), “AAAATCTCAACTACCATTT (sugars l6 d7 l2 d2 l2, PS)” registered a target mRNA inhibition of 41%. Same read-out and setting: for “AAAATCTCAACTACCATTT (sugars ldldllddddddddlllll, PS)” the value was 31%; for “AAAATCTCAACTACCATTT (sugars lldldlddddddddlllll, PS)”, 41%; for “AAAATCTCAACTACCATTTT (sugars ldlddlddddddddldllll, PS)”, 28%. Same read-out and setting: as for “AAAATCTCAACTACCATTTT (sugars ldlllldddddddddlddll, PS)”, the figure is 50%; as for “AAAATTATTTATACACCATC (sugars lldddldddddddldlllll, PS)”, 55%; as for “AAAATTATTTATACACCATC (sugars llldldldddddddllldll, PS)”, 56%. Same read-out and setting: as for “AAAGATCATTCTCAACAA (sugars ldddllddddddlldlll, PS)”, the figure is 33%. “AAAGATCATTCTCAACAA (sugars lddlldddddddldllll, PS)” came in with a target mRNA inhibition with SNHG14 (7.5 µM) of 66%. Still for that read-out and setting: for “AAAGATCATTCTCAACAA (sugars ldllldddddddlldlll, PS)” the value was 65%; for “AAATCTCAACTACCATTTTT (sugars ldddlddddddddldlllll, PS)”, 46%; for “AAATTATTTATACACCATCA (sugars l1 d12 l3 d1 l3, PS)”, 40%. On the same count and under the same terms, as for “AAATTATTTATACACCATCA (sugars ldlddldddddddldlldll, PS)”, the figure is 60%. Take AACAACTCATGCCACA (sugars l2 d10 l4, PS): the target mRNA inhibition came to 53% with SNHG14 (0.2 µM) and 59% with SNHG14 (1 µM). As for AACCCATTTCTAACAT (sugars l4 d10 l2, PS), the target mRNA inhibition is 35% with SNHG14 (0.2 µM) and 56% with SNHG14 (1 µM).

In the data set with SNHG14 (7.5 µM), “AAGATCATTCTCAACAAT (sugars l2 d1 l3 d8 l4, PS)” gave a target mRNA inhibition of 44%. For the sequence “AAGATCATTCTCAACAAT (sugars l4 d9 l5, PS)”, the target mRNA inhibition in the data set with SNHG14 (7.5 µM) is 52%.

Take AATCTCAACTACCATT (sugars l4 d10 l2, PS): the figures for the target mRNA inhibition with SNHG14 (0.2 µM) and with SNHG14 (1 µM) were 60% and 66%, respectively. The sequence “AATTATTTATACACCATCAT (sugars ldddldlddddddldddlll, PS)” returned a target mRNA inhibition with SNHG14 (7.5 µM) of 67%. Still for that read-out and setting: for “AATTATTTATACACCATCAT (sugars lddllldddddddldlddll, PS)” the value was 71%; for “AATTATTTATACACCATCAT (sugars ldlldddddddddddldlll, PS)”, 62%. The same measure, in the same setting: as for “AATTTTTTTCTTACTATCTT (sugars lddddldddddddldldlll, PS)”, the figure is 50%.

Regarding “AATTTTTTTCTTACTATCTT (sugars ldddldlddddddlldddll, PS)”, in the data set with SNHG14 (7.5 µM), the target mRNA inhibition turned out to be 34%.

“TGCTTCCCCACACCTTC (sugars e3 k2 d7 k2 e3, PS)” displayed a target mRNA inhibition in the data set with SOD1 (HepG2, 3 µM) of 43%.

In the data set with SOD1 (HepG2, 3 µM), “TGGATAGAGGATTAAAG (sugars e3 k2 d7 k2 e3, PS)” had a target mRNA inhibition of 23%.

“TGGGCCGTCGCCCTTCAGCA (sugars e5 d10 e5, PS)”: the target mRNA inhibition with SOD1 (HepG2, 4 µM) is 12%. Still for that read-out and setting: as for “TGGGCGATCCCAATTAC (sugars e2 k2 d9 k2 e2, PS)”, the figure is 46%. Regarding “TGTCAGCAGTCACATTGCCC (sugars e5 d10 e5, PS)”, the target mRNA inhibition with SOD1 (HepG2, 5 µM) was 55% and 49%.

As to “TGTTTAATGTTTATCA (sugars ekddddddddekekee, linkages s1 o1 s8 o3 s2)”, the target mRNA inhibition with SOD1 (A431, 0.12 µM) was determined as 0%; in the data set with SOD1 (A431, 0.6 µM) it was 13%; with SOD1 (A431, 3 µM), 31%; in the data set with SOD1 (A431, 15 µM) it was 49%. Consider “TGTTTAATGTTTATCAGG (sugars e5 d8 e5, linkages s1 o3 s9 o2 s2)”, for which the target mRNA inhibition with SOD1 (A431, 0.12 µM) was determined as 6%; with SOD1 (A431, 0.6 µM), 26%; in the data set with SOD1 (A431, 3 µM), 29%; in the data set with SOD1 (A431, 15 µM), 33%; with SOD1 (HepG2, 0.222 µM) it was 14%; with SOD1 (HepG2, 0.667 µM), 39%. Also, the target mRNA inhibition amounted to 59% in the data set with SOD1 (HepG2, 2 µM) and 77% with SOD1 (HepG2, 6 µM). In the case of “TGTTTATCAGGATACAT (sugars e2 k2 d9 k2 e2, PS)”, the target mRNA inhibition with SOD1 (HepG2, 0.1875 µM) was 37%; with SOD1 (HepG2, 0.75 µM), 63%; in the data set with SOD1 (HepG2, 3 µM), 83%; in the data set with SOD1 (HepG2, 4 µM), 83%; with SOD1 (HepG2, 12 µM) it was 95%. “TGTTTATTGGGCGATCC (sugars e2 k2 d9 k2 e2, PS)” showed a target mRNA inhibition with SOD1 (HepG2, 4 µM) of 47%. For “TTAAGATTACAGTGTTT (sugars e3 k2 d7 k2 e3, PS)”, the target mRNA inhibition in the data set with SOD1 (HepG2, 3 µM) is 54%.

On to “TTAATGTTTATCAGGA (sugars kekeddddddddekek, linkages s1 o3 s8 o1 s2)”, for which the target mRNA inhibition was found to be 3% in the data set with SOD1 (A431, 0.12 µM); 45% with SOD1 (A431, 0.6 µM); 65% with SOD1 (A431, 3 µM); 81% in the data set with SOD1 (A431, 15 µM); 53% in the data set with SOD1 (HepG2, 0.222 µM); 82% in the data set with SOD1 (HepG2, 0.667 µM). Further, the target mRNA inhibition stood at 91% with SOD1 (HepG2, 2 µM) and 96% with SOD1 (HepG2, 6 µM). Regarding “TTAATGTTTATCAGGAT (sugars e4 d8 k2 e3, linkages s1 o2 s9 o2 s2)”, the target mRNA inhibition with SOD1 (A431, 0.062 µM) was 26%; with SOD1 (A431, 0.185 µM), 30%; with SOD1 (A431, 0.556 µM), 58%; with SOD1 (A431, 0.6 µM), 50%; with SOD1 (A431, 1.667 µM) it was 64%; with SOD1 (A431, 5 µM), 68%. Besides, the target mRNA inhibition worked out at 78% in the data set with SOD1 (A431, 15 µM); 11% with SOD1 (SH-SY5Y, 0.062 µM); 44% in the data set with SOD1 (SH-SY5Y, 0.185 µM); 53% with SOD1 (SH-SY5Y, 0.556 µM); 75% in the data set with SOD1 (SH-SY5Y, 1.667 µM); 77% with SOD1 (SH-SY5Y, 5 µM). The same sequence returned a target mRNA inhibition with SOD1 (SH-SY5Y, 15 µM) of 93%. Regarding “TTATCAGGATACATTTC (sugars e2 k2 d8 k2 e3, PS)”, the target mRNA inhibition with SOD1 (HepG2, 4 µM) is 57%. Still for that read-out and setting: for “TTATCAGGATACATTTC (sugars e2 k2 d9 k2 e2, PS)” the value was 67%. “TTATTCACAGGCTTGAA (sugars e3 k2 d7 k2 e3, PS)”: in the data set with SOD1 (HepG2, 3 µM), the target mRNA inhibition was 10%. As for “TTCACAGGCTTGAATGA (sugars e2 k2 d9 k2 e2, PS)”, in the data set with SOD1 (HepG2, 5 µM), the target mRNA inhibition was determined as 16%. In the data set with SOD1 (HepG2, 3 µM), “TTCACTGGTCCATTACT (sugars e3 k2 d7 k2 e3, PS)” registered a target mRNA inhibition of 14%. Regarding “TTCAGTCAGTCCTTTAATGC (sugars e5 d10 e5, PS)”, the target mRNA inhibition with SOD1 (HepG2, 5 µM) was 24% and 21%. For “TTCCACCTTTGCCCAAG (sugars e3 k2 d7 k2 e3, PS)”, the target mRNA inhibition with SOD1 (HepG2, 3 µM) was 87%. The same measure, in the same setting: as for “TTCCCCACACCTTCACT (sugars e3 k2 d7 k2 e3, PS)”, the figure is 8%. On the same count and under the same terms, as for “TTCCTTCTGCTCGAAAT (sugars e3 k2 d7 k2 e3, PS)”, the figure is 13%.

As for “TTCTACAGCTAGCAGGA (sugars e2 k2 d9 k2 e2, PS)”, the target mRNA inhibition in the data set with SOD1 (HepG2, 0.1875 µM) turned out to be 10%; with SOD1 (HepG2, 0.75 µM), 57%; with SOD1 (HepG2, 3 µM) it was 84%; with SOD1 (HepG2, 4 µM) it was 79%; with SOD1 (HepG2, 12 µM), 94%. “TTCTCACTACAGGTACTTTA (sugars e5 d10 e5, PS)” registered a target mRNA inhibition with SOD1 (HepG2, 5 µM) of 28%. For the sequence “TTGGATTCTTTTAATAG (sugars e3 k2 d7 k2 e3, PS)”, in the data set with SOD1 (HepG2, 3 µM), the target mRNA inhibition worked out at 8%. In the case of “TTGGGCGATCCCAATTA (sugars e2 k2 d9 k2 e2, PS)”, in the data set with SOD1 (HepG2, 4 µM), the target mRNA inhibition amounted to 5%. Take “TTGGGCGATCCCAATTA (sugars e3 k2 d7 k2 e3, PS)”: the target mRNA inhibition with SOD1 (HepG2, 3 µM) worked out at 26%. In the case of “TTTAATGCTTCCCCACACCT (sugars e5 d10 e5, PS)”, the target mRNA inhibition in the data set with SOD1 (HepG2, 4 µM) was found to be 15%.

As to “TTTAATGTTTATCAGG (sugars kekeddddddddekek, linkages s1 o3 s8 o1 s2)”, the target mRNA inhibition came out at 15% with SOD1 (A431, 0.12 µM); 44% in the data set with SOD1 (A431, 0.6 µM); 73% with SOD1 (A431, 3 µM); 85% with SOD1 (A431, 15 µM); 73% with SOD1 (HepG2, 0.222 µM); 90% in the data set with SOD1 (HepG2, 0.667 µM). Besides, the target mRNA inhibition with SOD1 (HepG2, 2 µM) was found to be 93%; in the data set with SOD1 (HepG2, 6 µM), 97%.

Regarding “TTTATAGGCCAGACCTCCGC (sugars e5 d10 e5, PS)”, the target mRNA inhibition with SOD1 (HepG2, 4 µM) is 68% and 69%; with SOD1 (HepG2, 12 µM), 82%. Regarding “TTTCTACAGCTAGCAGG (sugars e2 k2 d8 k2 e3, PS)”, the target mRNA inhibition in the data set with SOD1 (HepG2, 0.1875 µM) was 16%; with SOD1 (HepG2, 0.75 µM), 58%; with SOD1 (HepG2, 3 µM), 78%; with SOD1 (HepG2, 4 µM), 76%; in the data set with SOD1 (HepG2, 12 µM), 87%. In turn, “TTTCTACAGCTAGCAGG (sugars e3 k2 d7 k2 e3, PS)” yielded a target mRNA inhibition with SOD1 (HepG2, 3 µM) of 38%.

In turn, “TTTCTCACTACAGGTAC (sugars e2 k2 d8 k2 e3, PS)” showed a target mRNA inhibition with SOD1 (HepG2, 5 µM) of 35%. Same read-out and setting: as for “TTTCTGGATAGAGGATTAAA (sugars e5 d10 e5, PS)”, the figure is 6% and 14%; as for “TTTGGATTCTTTTAATAGCC (sugars e5 d10 e5, PS)”, 14%; as for “TTTGTCAGCAGTCACATTGC (sugars e5 d10 e5, PS)”, 26% and 16%. “TTTTAGTTTGAATTTGG (sugars e3 k2 d7 k2 e3, PS)” had a target mRNA inhibition in the data set with SOD1 (HepG2, 3 µM) of 12%. “TTTTATTCACAGGCTTG (sugars e3 k2 d7 k2 e3, PS)” showed a target mRNA inhibition with SOD1 (HepG2, 3 µM) of 28%.

Turning to “TTTTTCATGGACCACCA (sugars e3 k2 d7 k2 e3, PS)”, in the data set with SOD1 (HepG2, 3 µM), the target mRNA inhibition was determined as 76%.

These data come from the OligoGym collection.
